The subject of the test is Histamine. Nature of the test: KONZETT (Histamine). Particulars: spasmogen histamine. Type of test: in vivo.

What is called ED50 is the midpoint of the dose-response relation. Higher therefore signals weaker potency.

As for `CCCCC(O)(C=O)C/C=C/[C@H]1[C@H](O)CC(=O)[C@@H]1CCCCCCC(=O)O` (relative stereo) [dl-11α,16α/β-dihydroxy-9-oxo-16-formyl-13-trans-prostenoic acid], the 50% effective dose (ED50) stood at 8.89 µg/kg.
